Results taken from patent US20100129434A1, “COMPOSITIONS AND METHODS FOR THE TREATMENT OF MUCORMYCOSIS AND OTHER FUNGAL DISEASES” (priority 2006, published 2010).
Converted amounts (≈) assume the structure as drawn. Read-outs that look alike come from different tables or passages of the source.

Tests used:
[1] = iron overloaded patients, cited from earlier work
Non-oryzae Rhizopus = test: Deferasirox susceptibility testing (MIC/MFC), non-oryzae Rhizopus isolates; type: cell-based, Rhizopus spp.
Protocol: Minimum inhibitory concentration (MIC) and minimum fungicidal concentration (MFC) were determined for deferasirox by the method of Espinel-Ingroff using R. oryzae spores starved for iron (Espinel-Ingroff, (2001), supra). Cidality was defined as a <4-fold difference between MIC and MFC.
We next determined the deferasirox susceptibilities of multiple clinical isolates of Mucorales (Table 3). The MIC9OS of deferasirox against Mucor, non-oryzae Rhizopus spp., and R. oryzae were 3.12 to 6.25 μg/ml. MFCs were similar to MICs, and deferasirox was cidal for 28/29 (97%) of isolates. Of note, slight growth was seen within the first twelve hours even at extremely high concentrations of deferasirox. […] Furthermore, the MICs and MFCs of deferasirox against these isolates were well below clinically achievable peak (˜38 μg/ml) and trough serum levels (˜17 μg/ml) of the drug at steady state when administered at the FDA-approved starting dose (20 mg/kg/d).

[2] = test system: Th1/Th2 and inflammatory cytokine responses; test: Splenic lymphocyte frequency and whole organ cytokines in infected DKA mice; type: in vivo
Protocol: Splenic lymphocyte frequencies were determined as we have previously described (Spellberg et al., Infect. Immun. 71:5756-5764 (2003)). In brief, splenic homogenates were passed through 70 μm filters followed by RBC lysis with 0.15 M ammonium chloride. The cells were fixed with Cytofix™ buffer (BD Pharmingen®), permeabilized with Cytoperm™ buffer (BD Pharmingen), and stained with 10 μg/ml of FITC-conjugated anti-mouse CD4 (clone RM4-5), PE-conjugated anti-mouse IFN-γ (clone XMG1.2) or isotype control (clone R-34), allophycocyanin (APC)-conjugated anti-mouse IL-4 (clone 11B11) or isotype control (clone R3-34), or APC-conjugated anti-mouse IL-10 (clone JES5-16E3) or isotype control (clone A95-1) (all from BD Pharmingen). In separate experiments, the frequency of CD4+CD25+foxp3+T-regulatory cells were determined using the Mouse Regulatory T cell Staining™ Kit (eBioscience®) per the manufacturer's recommendation. The frequency of apoptosis was determined using the Annexin FITC Apoptosis™ kit (BD Pharmingen®).
Cells were washed and three-color flow cytometry was performed on a Becton-Dickinson FACScan™ instrument calibrated with CaliBRITE™ beads (BD Pharmingen) using FACSComp™ software as per the manufacturer's recommendations. During data acquisition, CD4+lymphocytes were gated by concatenation of forward and side scatter, and FITC-anti-CD4 antibody fluorescence properties. Data for each sample were acquired until 10,000 CD4+lymphocytes were analyzed.
Spleens and kidneys were homogenized in 1 ml of PBS. The homogenates were pelleted at maximum speed on a tabletop centrifuge at 4° C. The supernatants were assayed for cytokines using the Cytometric Bead Array Murine Inflammatory Cytokine™ kit (BD Pharmingen) per the manufacturer's instructions.
Because of the alterations in inflammatory cellular influx seen in kidneys of mice treated with saturating ferric chloride vs. iron chelation, in this example we determined the impact of deferasirox therapy on Th1/Th2 and inflammatory cytokine responses in infected mice. Diabetic ketoacidotic mice were infected with 3.1×10^4 spores of R. oryzae 99-892 as above and treated with deferasirox, deferasirox plus ferric chloride, or placebo. On day four of infection, spleens and kidneys were processed for intracellular and whole organ cytokine determination.

[3] = 24 h, R. microsporus ATCC 62417
[4] = 48 h, R. microsporus ATCC 62417
[5] = Non-oryzae Rhizopus MIC90/MFC90, 24 h
[6] = Non-oryzae Rhizopus MIC90/MFC90, 48 h
[7] = Rhizopus, 24 h, Rhizopus sp. 99-1150
[8] = Rhizopus, 24 h, Rhizopus sp. 99-1700
[9] = Rhizopus, 48 h, Rhizopus sp. 99-1150
[10] = Rhizopus, 48 h, Rhizopus sp. 99-1700
[11] = Rhizopus, ATCC20577, 24 h, Rhizopus sp. ATCC 20577, 24 h
[12] = Rhizopus, ATCC20577, 48 h, Rhizopus sp. ATCC 20577, 48 h
[13] = R. oryzae 99-892, between the groups
[14] = R. oryzae 99-892, vs saturating iron or placebo

SMILES: O=C(O)c1ccc(-n2nc(-c3ccccc3O)nc2-c2ccccc2O)cc1 [Deferasirox, 4-[3,5-Bis(2-hydroxyphenyl)-1H-1,2,4-triazol-1-yl]-benzoic acid]
- tolerability ([1]; chronic dosing over months to years, up to 30 mg/kg/d): very well tolerated
- tolerability ([1]; up to 40 mg/kg/d for up to 12 days): very well tolerated
- MFC (Non-oryzae Rhizopus; [3]): 0.39 µg/mL (≈ 1.04 µM)
- MIC (Non-oryzae Rhizopus; [3]): 0.39 µg/mL (≈ 1.04 µM)
- MFC (Non-oryzae Rhizopus; [4]): 0.39 µg/mL (≈ 1.04 µM)
- MIC (Non-oryzae Rhizopus; [4]): 0.39 µg/mL (≈ 1.04 µM)
- Fungicidal? (Non-oryzae Rhizopus; [5]): Y (Cidal = MFC/MIC ≦ 4)
- MFC90 (Non-oryzae Rhizopus; [5]): 6.25 µg/mL (≈ 16.7 µM)
- MIC90 (Non-oryzae Rhizopus; [5]): 6.25 µg/mL (≈ 16.7 µM)
- Fungicidal? (Non-oryzae Rhizopus; [6]): Y (Cidal = MFC/MIC ≦ 4)
- MFC90 (Non-oryzae Rhizopus; [6]): 6.25 µg/mL (≈ 16.7 µM)
- MIC90 (Non-oryzae Rhizopus; [6]): 3.12 µg/mL (≈ 8.36 µM)
- Fungicidal? (Non-oryzae Rhizopus; R. microsporus ATCC 62417, 24 h): Y (Cidal = MFC/MIC ≦ 4)
- Fungicidal? (Non-oryzae Rhizopus; R. microsporus ATCC 62417, 48 h): Y (Cidal = MFC/MIC ≦ 4)
- Fungicidal? (Non-oryzae Rhizopus; Rhizopus sp. 99-1150, 24 h): Y (Cidal = MFC/MIC ≦ 4)
- Fungicidal? (Non-oryzae Rhizopus; Rhizopus sp. 99-1150, 48 h): Y (Cidal = MFC/MIC ≦ 4)
- Fungicidal? (Non-oryzae Rhizopus; Rhizopus sp. 99-1700, 24 h): Y (Cidal = MFC/MIC ≦ 4)
- Fungicidal? (Non-oryzae Rhizopus; Rhizopus sp. 99-1700, 48 h): Y (Cidal = MFC/MIC ≦ 4)
- Fungicidal? (Non-oryzae Rhizopus; Rhizopus sp. ATCC 20577, 24 h): Y (Cidal = MFC/MIC ≦ 4)
- Fungicidal? (Non-oryzae Rhizopus; Rhizopus sp. ATCC 20577, 48 h): Y (Cidal = MFC/MIC ≦ 4)
- MFC (Non-oryzae Rhizopus; [7]): 6.25 µg/mL (≈ 16.7 µM)
- MIC (Non-oryzae Rhizopus; [7]): 6.25 µg/mL (≈ 16.7 µM)
- MFC (Non-oryzae Rhizopus; [8]): 6.25 µg/mL (≈ 16.7 µM)
- MIC (Non-oryzae Rhizopus; [8]): 6.25 µg/mL (≈ 16.7 µM)
- MFC (Non-oryzae Rhizopus; [9]): 3.12 µg/mL (≈ 8.36 µM)
- MIC (Non-oryzae Rhizopus; [9]): 3.12 µg/mL (≈ 8.36 µM)
- MFC (Non-oryzae Rhizopus; [10]): 1.56 µg/mL (≈ 4.18 µM)
- MIC (Non-oryzae Rhizopus; [10]): 1.56 µg/mL (≈ 4.18 µM)
- MFC (Non-oryzae Rhizopus; [11]): 6.25 µg/mL (≈ 16.7 µM)
- MIC (Non-oryzae Rhizopus; [11]): 3.12 µg/mL (≈ 8.36 µM)
- MFC (Non-oryzae Rhizopus; [12]): 6.25 µg/mL (≈ 16.7 µM)
- MIC (Non-oryzae Rhizopus; [12]): 3.12 µg/mL (≈ 8.36 µM)
- Th1 and Th2 splenocyte frequencies ([2]; 3.1×10^4 spores R. oryzae 99-892, day four, vs saturating ferric chloride or placebo): significant increase
- kidney level of IFN-γ ([2]; R. oryzae 99-892): significantly higher
- frequencies of CD4+IL-10+ or CD4+CD25+foxp3+ splenocytes [2, 13]: not significantly different
- splenocyte apoptosis [2, 13]: no significant difference
- splenic level of IFN-γ [2, 14]: significantly higher
- splenic level of TNF [2, 14]: significantly higher
